US11628146B2, “Estrogen receptor ligand treatment for neurodegenerative diseases” (The Regents of the University of California, priority 2014, dated 2023)
Entries after “also recorded” stand apart in the source; their conditions may differ.

Test system: female C57BL/6 mice with EAE
Assay: In vivo longitudinal MRI of brain volumes in EAE
Design: species or system mouse
Procedure: MRI Acquisition. Mice were anesthetized with isofluorane and their heads secured with bite and ear bars. Respiration rate was monitored and the mice were maintained at 37° C. using a circulating water pump. In vivo magnetic resonance imaging was performed using a 200 mm horizontal bore 7.0 T Bruker imaging spectrometer with a micro-imaging gradient insert with a maximum gradient strength of 100 G/cm and 30 mm birdcage RF coil (Bruker Instruments, Billerica, Mass.). An actively decoupled quadrature surface coil array was used for signal reception and a 72-mm birdcage coil was used for transmission. Images were acquired and reconstructed using ParaVision 5.1 software. Imaging parameters were as follows: rapid-acquisition with relaxation enhancement (RARE) sequence, matrix dimensions=256×128×64; field of view=3.84 cm×1.92 cm×0.96 cm; repetition time (TR)=3500 ms; apparent time to echo (apparent TE)=32 ms; echo train length=16; total scan time=37 mins. Spatial resolution was 150 μm^3 per voxel.
MRI Analysis. Images were skull-stripped using the Brain Surface Extractor (BSE) and residual non-brain signal was removed by a single operator manually editing the masks using BrainSuite 11a and bias-field inhomogeneities removed using the N3 correction. After inhomogeneity correction, a minimum deformation atlas (MDA) was produced. Images were spatially and intensity normalized to the MDA using a rigid-body transformation and an intensity rescaling cost function in Alignlinear (AIR). This process permits the comparison of images in a standard space correcting for both gross positional and intensity differences, yet preserving anatomically significant local changes. Following creation of this atlas, cerebral cortices and cerebella were manually labeled on the atlas. The labels were then warped onto the individual spatially normalized images to produce standardized estimates of gray matter volumes in individual subjects. All automated image processing was performed using the LONI Pipeline Processing Environment on an 8-processor core Mac Pro computer (Apple, Cupertino, Calif.).
Cerebral cortex and cerebellum labels were based on the Mouse Atlas Project 2003 mouse brain atlas. […] Importantly, this label contained the somatosensory regions (primary and secondary) and the motor cortex (primary and secondary). Additional anatomical information was obtained from the Franklin and Paxinos mouse brain atlas (Franklin and Paxinos, 2008).
Statistics. Global and regional brain volume changes in EAE mice and control animals were compared with repeated measures ANOVAs using SPSS 22 (IBM, Armonk, N.Y.). […] Regression analysis and Welch's t-tests were performed in Excel 2011 (Microsoft, Redmond, Wash.). All results are presented as mean±standard deviation.

[1] = 30 mg/kg every other day in miglyol, d0, d30, d60, vs vehicle-treated EAE

## Oc1ccc(C2(c3ccccc3F)CCC(F)(F)CC2)cc1 [AC-186]
[1]
  Cerebellar atrophy (volume loss): decreased the amount of volume loss; also recorded: less cerebellar atrophy
  Cerebral cortex atrophy: atrophy rates were decreased; also recorded: less atrophy in the cerebral cortex
  Whole brain atrophy (whole brain volume decrease over time): significantly smaller; also recorded: less brain atrophy
AC-186 30 mg/kg treated EAE mice, d60, mean, SD 1.1 mm^3
  Volume of the whole cerebellum: 51.8 mm^3
AC-186 30 mg/kg treated EAE mice, d60, mean, SD 1.6 mm^3
  Volume of the cerebral cortex: 70.8 mm^3
AC-186 30 mg/kg treated EAE mice, d60, mean, SD 7.0 mm^3
  Volume of the whole brain: 483 mm^3
d60, vehicle 50.0 mm^3
  Difference in cerebellum volume vs vehicle treated EAE mice: 3.5%
d60, vehicle 68.9 mm^3
  Difference in cerebral cortex volume vs vehicle treated EAE mice: 5.0%
d60, vehicle 478 mm^3
  Difference in whole brain volume vs vehicle treated EAE mice: 2.7%
